US20250345321A1, “CATEQUENTINIB (ANLOTINIB) IN SEQUENTIAL COMBINATION WITH IMMUNOTHERAPY FOR USE IN THE TREATMENT OF CANCER” (ADVENCHEN PHARMACEUTICALS, LLC, priority 2019, published 2025)
Counter-ions that a name gives are not always drawn.

How the values were obtained:
[1] = Phase 1 chemo combination dosing de-escalation trial: safety, tolerability, DLT events
Excerpt: A Phase 1 trial was designed to determine the recommended phase 2 dose (RP2D) for part 2 (phase 2a) of the study.
In this presented chemo combination therapy regimen, in the first day of the 21-day cycle, standard platinum-based chemotherapeutic agents were administrated intravenously to the patients. […] 1-6 cycles of chemotherapy were applied for each individual patient.
After the intravenous (IV) chemotherapy on the Day 1, Day 2 to Day 7 was the therapy free period.
From Day 22 (C2D1) (CXDY is the abbreviation for Cycle X Day Y. For example, C2D1 represents Cycle 2 Day 1), a new cycle began, paclitaxel and carboplatin (or cisplatin for cervical cancer) were administrated to the patients and Day 23 to Day 28 (C2D2 • C2D7) was the therapy free period again.
The first 21-day cycle plus 7 days (C1D1-C2D8 or Day 1 to Day28) was crucial in this regimen and it was called the primary safety evaluation period. The recommended phase 2 dose (RP2D) was obtained by evaluating according to the standard for the dose limiting toxicity (DLT) events of patients in this period of time.
This evaluation period could be extended to the end of second cycle for the patients who passed the primary safety evaluation period.
In this embodiment, if any serious dose limiting toxicity (DLT) events or other serious side effects occurred, according to the serious level, the patients might require to withdraw the treatment, reduce the dose of medication or switch to other medications.

[2] = system: endometrial cancer; assay: Phase 2a efficacy of AL3818 with standard platinum-based chemotherapy, endometrial cancer patients; type: in vivo, human; design: key to Best response: stable disease (SD); partial response (PR); complete response (CR)
Experimental: (§1) Phase 1 was completed in Q1 2017 at one study site to determine the recommend phase 2 dose (RP2D). The RP2D was determined to be AL3818 dihydrochloride 8 mg orally once daily in 21-day cycles (14 days on treatment, 7 days off treatment) on Day 8 to Day 21 of the cycle with platinum-based chemotherapy on Day 1 of the cycle.
(§2) Phase 2a is currently ongoing at four study sites in the U.S. The first subject was enrolled in April 2017. As of December 2018, 48 subjects with recurrent or metastatic endometrial, ovarian, and cervical cancer have been enrolled. 24 subjects are still on treatment and 24 subjects have discontinued treatment. 21 endometrial cancer subjects have been enrolled, 9 subjects have discontinued treatment. 8 subjects discontinued due to disease progression, 1 subject discontinued due to toxicity. 12 subjects remain on treatment.
Combining Phase 1 and Phase 2a subjects, 24 subjects with endometrial cancer have been enrolled in study AL3818-US-002. 19 subjects have had evaluable responses as of December 2018. There were eight subjects enrolled in Phase 2a of the study as first-line treatment.

[3] = system: recurrent or advanced endometrial, ovarian, and cervical cancer; assay: Phase 1 efficacy of AL3818 with standard platinum-based chemotherapy (best response); type: in vivo, human; design: key to Best response: stable disease (SD); partial response (PR); complete response (CR)
Excerpt: Patients in this trial were females with recurrent or advanced endometrial, ovarian, and cervical cancer.
In this described study, all patients received at least one dose of AL3818 dihydrochloride orally. Aside of three patients were permanent discharged from this study due to severe adverse events (SAE), the other six patients' best response ranged from stable disease (SD) (⅙, 16.7%), partial response (PR) ( 4/6, 66.6%) to complete response (CR) (⅙, 16.7%).
1. The daily dosage of compound AL3818 was the initial dosage that administrated to the patients, which might subject to a dosage reduction if serious side-effects were observed.
2. The best response represented the most favorable outcome during the entire treatment, regardless of the possible disease progression (PD) after that.

[4] = Phase 2a chemo combination trial: TEAEs and toxicity; type: in vivo, human
Experimental: as §1, §2

[5] = system: ovarian cancer; assay: Phase 2a efficacy of AL3818 with standard platinum-based chemotherapy, ovarian cancer patients; type: in vivo, human; design: key: stable disease (SD); partial response (PR); complete response (CR); conditions: single ovarian cancer subjects, 8 mg daily + chemotherapy, December 2018, PtR = platinum resistant
Experimental: as §1, §2

[6] = target: FGFR1 (Homo sapiens, UniProt P11362); conditions: cited from earlier work
Sequence of FGFR1 (P11362 22-822): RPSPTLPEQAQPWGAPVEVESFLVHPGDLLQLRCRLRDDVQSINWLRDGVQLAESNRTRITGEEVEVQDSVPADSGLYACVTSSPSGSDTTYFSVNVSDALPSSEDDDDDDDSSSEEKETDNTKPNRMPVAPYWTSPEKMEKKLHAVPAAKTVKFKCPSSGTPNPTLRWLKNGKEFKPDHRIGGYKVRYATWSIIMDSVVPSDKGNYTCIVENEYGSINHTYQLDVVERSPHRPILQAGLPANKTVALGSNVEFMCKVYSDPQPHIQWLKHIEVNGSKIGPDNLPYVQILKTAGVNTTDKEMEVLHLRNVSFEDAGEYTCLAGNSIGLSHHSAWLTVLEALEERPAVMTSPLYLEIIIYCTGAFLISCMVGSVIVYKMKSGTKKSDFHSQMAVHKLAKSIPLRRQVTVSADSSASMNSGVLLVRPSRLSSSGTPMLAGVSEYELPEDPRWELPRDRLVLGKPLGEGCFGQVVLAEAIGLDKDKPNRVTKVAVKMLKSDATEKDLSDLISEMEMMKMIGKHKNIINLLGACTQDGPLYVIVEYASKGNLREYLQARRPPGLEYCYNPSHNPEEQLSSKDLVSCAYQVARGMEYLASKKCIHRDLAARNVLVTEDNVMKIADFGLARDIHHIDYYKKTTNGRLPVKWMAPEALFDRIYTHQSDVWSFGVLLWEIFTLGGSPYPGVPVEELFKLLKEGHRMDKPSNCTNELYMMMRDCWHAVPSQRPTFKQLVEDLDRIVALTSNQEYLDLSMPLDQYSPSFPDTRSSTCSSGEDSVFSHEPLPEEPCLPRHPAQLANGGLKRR

[7] = target: VEGFR3 (Homo sapiens, UniProt P35916); conditions: cited from earlier work
Sequence of VEGFR3 (P35916 25-1363): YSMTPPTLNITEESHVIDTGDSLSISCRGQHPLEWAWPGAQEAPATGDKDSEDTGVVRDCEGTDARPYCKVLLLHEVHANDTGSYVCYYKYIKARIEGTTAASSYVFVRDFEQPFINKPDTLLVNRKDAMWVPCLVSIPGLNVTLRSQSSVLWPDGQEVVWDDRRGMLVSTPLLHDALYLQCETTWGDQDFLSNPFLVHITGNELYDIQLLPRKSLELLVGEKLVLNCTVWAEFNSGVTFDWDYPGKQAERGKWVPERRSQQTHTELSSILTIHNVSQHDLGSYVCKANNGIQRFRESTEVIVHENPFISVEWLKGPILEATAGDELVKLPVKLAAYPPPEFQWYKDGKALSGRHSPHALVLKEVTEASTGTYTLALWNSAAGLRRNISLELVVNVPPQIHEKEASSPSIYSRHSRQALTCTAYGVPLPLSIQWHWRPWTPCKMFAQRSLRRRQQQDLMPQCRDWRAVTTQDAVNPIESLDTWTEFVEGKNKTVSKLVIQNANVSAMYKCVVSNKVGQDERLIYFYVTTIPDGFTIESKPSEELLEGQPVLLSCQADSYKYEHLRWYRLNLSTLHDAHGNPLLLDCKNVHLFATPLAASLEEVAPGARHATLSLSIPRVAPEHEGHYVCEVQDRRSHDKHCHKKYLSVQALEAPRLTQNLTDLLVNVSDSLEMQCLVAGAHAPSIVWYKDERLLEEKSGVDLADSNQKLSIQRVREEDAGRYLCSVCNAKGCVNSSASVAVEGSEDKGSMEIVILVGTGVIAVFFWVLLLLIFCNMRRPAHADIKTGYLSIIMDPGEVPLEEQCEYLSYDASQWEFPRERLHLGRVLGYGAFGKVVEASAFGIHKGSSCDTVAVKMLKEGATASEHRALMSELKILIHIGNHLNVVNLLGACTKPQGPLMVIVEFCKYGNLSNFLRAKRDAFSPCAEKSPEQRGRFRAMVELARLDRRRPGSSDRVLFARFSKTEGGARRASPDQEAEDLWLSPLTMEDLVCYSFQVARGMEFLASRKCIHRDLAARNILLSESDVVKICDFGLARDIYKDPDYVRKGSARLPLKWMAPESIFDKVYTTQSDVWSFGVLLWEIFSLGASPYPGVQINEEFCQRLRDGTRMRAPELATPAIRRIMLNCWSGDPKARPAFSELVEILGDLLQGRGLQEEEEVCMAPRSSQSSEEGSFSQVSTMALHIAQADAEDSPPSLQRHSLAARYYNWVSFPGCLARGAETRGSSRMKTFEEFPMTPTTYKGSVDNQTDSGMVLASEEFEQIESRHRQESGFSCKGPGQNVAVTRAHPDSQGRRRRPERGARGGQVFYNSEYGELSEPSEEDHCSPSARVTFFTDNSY

[8] = target: VEGFR2/KDR (Homo sapiens, UniProt P35968); conditions: cited from earlier work
[9] = AL3818 combination therapy with Nivolumab Phase I trial (DLT); type: in vivo, human; conditions: 10 mg oral Day 1-14 + Nivolumab 240 mg infusion Day 1 and Day 15 per 28 days; six sarcoma subjects
Excerpt: AL3818 and Nivolumab administrations are both started on Day 1.
Nivolumab is administrated via infusion on Day 1 and Day 15 for twice per 28 days, 21 days as one cycle will still be applied for the combination therapy. Nivolumab can be administrated via infusion on Day 1 once per 28 days, 21 days as one cycle will still be applied for the combination therapy. AL3818 is administrated orally from Day 1 to Day 14 and off from Day 15 to Day 21 for 21 days as one cycle. Nivolumab is administrated via infusion on Day 1 and Day 15 for twice per 28 days starting dose at 240 mg twice per 28 days. Nivolumab can be optionally administrated via infusion on Day 1 once per 28 days at 480 mg. AL3818 is administrated orally at Day 1-Day 14 at starting dose of 12 mg.
Treatments of subject 001 (liposarcoma), 002 (synovial sarcoma), 003 (angiosarcoma), 004 (leiomyosarcoma), 005 (undifferentiated pleomorphic sarcoma) and 006 (leiomyosarcoma) at 10 mg oral dosing Day 1-14 combing with Nivolumab at Day 1 and Day 15 for twice per 28 days starting dose at 240 mg infusion have been completed with one DLT (subject 002). Dose escalation to 12 mg combination therapies with Nivolumab with cervical cancer subject and other sarcoma subjects are ongoing.

[10] = target: VEGFR1 (Homo sapiens, UniProt P17948); conditions: cited from earlier work
[11] = target: c-KIT (Homo sapiens, UniProt P10721); conditions: cited from earlier work
Sequence of c-KIT (P10721 26-976): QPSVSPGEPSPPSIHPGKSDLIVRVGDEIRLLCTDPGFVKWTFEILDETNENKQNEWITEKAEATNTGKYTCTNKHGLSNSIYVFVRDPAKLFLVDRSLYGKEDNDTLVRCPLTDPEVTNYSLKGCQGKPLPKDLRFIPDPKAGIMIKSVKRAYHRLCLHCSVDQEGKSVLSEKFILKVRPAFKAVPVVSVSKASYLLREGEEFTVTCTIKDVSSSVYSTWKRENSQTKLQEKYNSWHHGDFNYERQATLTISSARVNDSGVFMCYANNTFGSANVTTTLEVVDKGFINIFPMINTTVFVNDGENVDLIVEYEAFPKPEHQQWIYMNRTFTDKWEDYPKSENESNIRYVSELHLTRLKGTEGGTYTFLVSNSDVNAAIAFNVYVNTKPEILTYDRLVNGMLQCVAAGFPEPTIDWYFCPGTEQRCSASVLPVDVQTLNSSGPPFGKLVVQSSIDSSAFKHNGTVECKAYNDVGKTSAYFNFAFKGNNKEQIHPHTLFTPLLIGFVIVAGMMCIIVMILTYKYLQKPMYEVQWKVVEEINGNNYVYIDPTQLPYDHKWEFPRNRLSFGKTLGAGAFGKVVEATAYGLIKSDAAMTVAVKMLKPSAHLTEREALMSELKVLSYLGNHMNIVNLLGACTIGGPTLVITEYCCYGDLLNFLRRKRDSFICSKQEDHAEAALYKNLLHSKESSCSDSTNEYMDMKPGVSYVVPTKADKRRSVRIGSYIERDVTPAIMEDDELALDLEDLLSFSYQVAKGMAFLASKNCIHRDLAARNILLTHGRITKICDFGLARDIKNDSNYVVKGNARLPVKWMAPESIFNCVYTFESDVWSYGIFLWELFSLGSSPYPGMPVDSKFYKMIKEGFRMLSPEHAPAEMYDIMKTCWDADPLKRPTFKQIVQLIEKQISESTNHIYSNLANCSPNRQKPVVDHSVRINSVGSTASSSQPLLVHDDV

[12] = target: FGFR2 (Homo sapiens, UniProt P21802); conditions: cited from earlier work
[13] = target: PDGFR-a (Homo sapiens, UniProt P16234); conditions: cited from earlier work
Sequence of PDGFR-a (P16234 24-1089): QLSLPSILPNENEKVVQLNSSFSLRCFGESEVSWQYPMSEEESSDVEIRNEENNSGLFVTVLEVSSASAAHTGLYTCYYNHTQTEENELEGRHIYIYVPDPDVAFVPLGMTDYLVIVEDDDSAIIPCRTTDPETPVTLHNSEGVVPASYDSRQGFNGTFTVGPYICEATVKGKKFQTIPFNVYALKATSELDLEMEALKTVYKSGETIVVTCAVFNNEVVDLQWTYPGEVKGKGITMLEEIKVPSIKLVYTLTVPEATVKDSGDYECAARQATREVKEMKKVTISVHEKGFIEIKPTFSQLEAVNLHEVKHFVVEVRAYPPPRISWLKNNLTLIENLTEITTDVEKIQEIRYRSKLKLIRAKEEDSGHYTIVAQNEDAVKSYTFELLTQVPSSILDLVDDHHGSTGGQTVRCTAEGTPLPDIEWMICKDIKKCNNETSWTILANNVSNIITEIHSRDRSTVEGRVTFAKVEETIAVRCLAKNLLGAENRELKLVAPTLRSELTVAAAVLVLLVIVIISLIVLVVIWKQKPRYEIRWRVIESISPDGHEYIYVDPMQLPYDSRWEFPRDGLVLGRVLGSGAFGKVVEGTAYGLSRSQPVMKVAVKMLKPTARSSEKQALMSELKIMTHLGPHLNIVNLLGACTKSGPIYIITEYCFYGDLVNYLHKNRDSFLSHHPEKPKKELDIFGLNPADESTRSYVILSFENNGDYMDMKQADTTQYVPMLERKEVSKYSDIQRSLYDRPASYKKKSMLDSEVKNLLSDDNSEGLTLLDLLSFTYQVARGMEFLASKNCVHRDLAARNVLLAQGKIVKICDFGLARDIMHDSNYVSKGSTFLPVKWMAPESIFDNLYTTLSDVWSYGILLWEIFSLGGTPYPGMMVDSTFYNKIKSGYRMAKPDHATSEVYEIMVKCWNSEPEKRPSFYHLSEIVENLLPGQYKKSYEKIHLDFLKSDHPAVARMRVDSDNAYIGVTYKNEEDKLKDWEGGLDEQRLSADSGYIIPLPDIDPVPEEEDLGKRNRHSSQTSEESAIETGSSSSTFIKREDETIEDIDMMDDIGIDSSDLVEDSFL

[14] = target: FGFR3 (Homo sapiens, UniProt P22607); conditions: cited from earlier work
Sequence of FGFR3 (P22607 23-806): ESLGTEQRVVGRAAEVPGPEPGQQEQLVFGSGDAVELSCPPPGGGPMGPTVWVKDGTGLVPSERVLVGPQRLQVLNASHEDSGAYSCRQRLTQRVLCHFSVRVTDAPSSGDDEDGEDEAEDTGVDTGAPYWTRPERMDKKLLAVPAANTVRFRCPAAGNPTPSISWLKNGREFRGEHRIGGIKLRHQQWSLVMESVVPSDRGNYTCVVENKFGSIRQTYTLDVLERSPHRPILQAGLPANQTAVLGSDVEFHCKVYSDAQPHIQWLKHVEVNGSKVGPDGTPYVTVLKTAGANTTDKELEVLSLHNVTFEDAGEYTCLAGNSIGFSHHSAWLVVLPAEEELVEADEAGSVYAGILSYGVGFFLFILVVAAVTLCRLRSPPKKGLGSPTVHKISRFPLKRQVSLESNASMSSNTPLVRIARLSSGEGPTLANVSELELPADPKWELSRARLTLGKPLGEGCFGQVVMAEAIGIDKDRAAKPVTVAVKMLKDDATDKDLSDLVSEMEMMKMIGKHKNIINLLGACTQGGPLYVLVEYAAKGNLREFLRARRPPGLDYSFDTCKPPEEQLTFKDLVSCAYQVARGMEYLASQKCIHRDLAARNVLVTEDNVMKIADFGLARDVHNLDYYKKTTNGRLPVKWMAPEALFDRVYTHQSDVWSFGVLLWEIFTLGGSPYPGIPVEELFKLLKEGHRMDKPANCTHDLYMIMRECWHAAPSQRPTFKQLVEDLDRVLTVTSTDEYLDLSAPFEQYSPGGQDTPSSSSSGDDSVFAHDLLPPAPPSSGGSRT

[15] = system: tumor; conditions: mouse model, disclosed in earlier filing; cited from earlier work
[16] = 21 endometrial cancer subjects enrolled in Phase 2a, December 2018
[17] = endometrial cancer, second- and further-line treatment, eleven subjects
[18] = single subject, ovarian cancer, daily dosage 8 mg + standard paclitaxel and carboplatin
[19] = single subjects, endometrial cancer, daily dosage 8 mg + standard paclitaxel and carboplatin
[20] = single subjects, ovarian cancer, initial daily dosage 12 mg + standard platinum-based chemotherapy

## COc1cc2c(Oc3ccc4[nH]c(C)cc4c3F)ccnc2cc1OCC1(N)CC1 [AL3818 dihydrochloride]
[1]; 10 mg daily group, three patients, oral Day 8-21 of 21-day cycle + paclitaxel/carboplatin Day 1
  dose limiting toxicity (DLT) events: one of the patients
[1]; 12 mg daily group, three patients, oral Day 8-21 of 21-day cycle + paclitaxel/carboplatin Day 1
  dose limiting toxicity (DLT) events during the primary safety evaluation period: two of the patients out of three
[1]; 21-day cycle (14 days on, 7 off) combined with paclitaxel and carboplatin (or cisplatin)
  safe daily dosage: 8 mg
[1]; oral once daily Day 8-21 of 21-day cycle with platinum-based chemotherapy Day 1
  recommended phase 2 dose (RP2D): 8 mg
[2]; [16]
  subjects discontinued due to disease progression: 8 subjects
[2]; endometrial cancer, first-line treatment, eight subjects
  partial responses (PR) as best responses: five partial responses
[2]; endometrial cancer, first-line treatment, eight subjects Phase 2a (5/8)
  Objective response rate (ORR): 62.5%
[2]; endometrial cancer, first-line treatment, eight subjects Phase 2a (6/8)
  disease control rate (DCR): 75%
[2]; [17]
  complete response (CR) as best responses: one complete response
  partial responses (PR) as best responses: five partial responses
[2]; endometrial cancer, second- and further-line treatment, eleven subjects (9/11)
  disease control rate (DCR): 82%
[2]; endometrial cancer, second- and further-line treatment, eleven subjects Phase 1 and 2a (6/11)
  Objective response rate (ORR): 54.5%
[2]; single endometrial cancer subjects, Phase 2a, 8 mg daily + paclitaxel/carboplatin, December 2018
  Best response: CR and PR and SD
[3]; Phase 1, six evaluable patients (1/6)
  share of patients with best response complete response (CR): 16.7%
[3]; Phase 1, six evaluable patients (4/6)
  share of patients with best response partial response (PR): 66.6%
[3]; [18]
  Best response: SD
[3]; [19]
  Best response: PR
[3]; [20]
  Best response: PR
[4]; [16]
  subjects discontinued due to toxicity: 1 subject
[4]; Phase 2a, % of all TEAEs
  TEAE abdominal pain: 4.20%
  TEAE alopecia: 1.3%
  TEAE anaemia: 1.8%
  TEAE arthralgia: 1.6%
  TEAE asthenia: 2.2%
  TEAE back pain: 1.5%
  TEAE constipation: 2.7%
  TEAE decreased appetite: 2.7%
  TEAE diarrhea: 6.3%
  TEAE dyspnea: 1%
  TEAE epistaxis: 3%
  TEAE fatigue: 4.5%
  TEAE flatulence: 1.5%
  TEAE headache: 3.2%
  TEAE hypertension: 3.3%
  TEAE hypokalemia: 1.3%
  TEAE hypomagnesaemia: 1%
  TEAE insomnia: 1.3%
  TEAE nausea: 4.7%
  TEAE neuropathy peripheral: 2%
  TEAE neutropenia: 2%
  TEAE neutrophil count decreased: 1%
  TEAE pain in extremity: 1.7%
  TEAE pyrexia: 1.2%
  TEAE thrombocytopenia: 1.7%
  TEAE urinary tract infection: 1.3%
  TEAE vomiting: 2.8%
  TEAE weight decreased: 1%
[5]
  Best Response (% reduction): SD

## COc1cc2c(Oc3ccc4[nH]c(C)cc4c3F)ccnc2cc1OCC1(N)CC1 [AL3818, (1-[[4-(4-fluoro-2-methyl-1H-indol-5-yloxy)-6-methoxyquinolin-7-yl]oxy]methyl]cyclopropaneamine]
[1]; 8 mg daily group, three patients, oral Day 8-21 of 21-day cycle + paclitaxel/carboplatin Day 1
  dose limiting toxicity (DLT) events: no patient
[1]; 12 mg daily together with platinum-based chemotherapy
  tolerability of daily dosage of 12 mg: too high
[1]; Phase 1, nine subjects
  TEAE abdominal pain: 2.88%
  TEAE alopecia: 2.91%
  TEAE chest pain: 1.92%
  TEAE dehydration: 1.92%
  TEAE diarrhea: 4.81%
  TEAE dizziness: 2.88%
  TEAE fatigue: 4.81%
  TEAE hypertension: 2.88%
  TEAE nausea: 9.62%
  TEAE pulmonary embolism: 1.92%
  TEAE sore throat: 1.92%
  TEAE thrombocytopenia: 1.94%
  TEAE urinary tract infection: 2.88%
  TEAE vomiting: 5.77%
  TEAE weakness generalized: 2.88%
[1]; Phase 1, nine subjects (9/9)
  subjects reporting treatment emergent adverse events (TEAE): 100%
[3]; single subject, cervical cancer, initial daily dosage 12 mg + standard platinum-based chemotherapy
  Best response: NE/SAE
[3]; single subject, endometrial cancer, initial daily dosage 10 mg + standard platinum-based chemotherapy
  Best response: PR
[3]; [18]
  Best response: SD
[3]; [19]
  Best response: PR
[3]; single subjects, ovarian cancer, initial daily dosage 10 mg + standard platinum-based chemotherapy
  Best response: CR and NE/SAE
[3]; [20]
  Best response: NE/SAE and PR
[6]
  inhibition of FGFR1: strong inhibitor
[7]
  inhibition of VEGFR3 activity: could inhibit
[8]
  inhibition of VEGFR2/KDR activity: could inhibit
[9]
  DLT: one DLT
[10]
  inhibition of VEGFR1 activity: could inhibit
[11]
  inhibition of c-KIT: strong inhibitor
[12]
  inhibition of FGFR2: strong inhibitor
[13]
  inhibition of PDGFR-a: strong inhibitor
[14]
  inhibition of FGFR3: strong inhibitor
[15]
  anti-tumor effect of combination with chemotherapy agents: synergistic anti-tumor effects
